{
  "source": "patent US8476309B2",
  "about": "“Benzofuran cannabinoid compounds and related methods of use” (The University of Tennessee Research Foundation, priority 2009, dated 2013)",
  "system": "glioblastoma brain cancer cell line LN-229",
  "experiment": "Cytotoxicity assay (CCK8 viability)",
  "format": "cell-based",
  "details": "Homo sapiens, read-out: EC50 LN-229, 24 hrs, 1% FBS",
  "procedure": "Cytoxocity assay: Cells are seeded on a 96 well polystyrene plate in full serum media at a density of 75,000 cells per milliliter, 100 μL per well. Plates are incubated at 37° C. and 5% CO2 for 24 hours to allow cell attachment. Drug solutions are prepared in DMSO at 100× concentration and mixed 1:100 in 1% FBS media to yield the desired concentration. Drug-media mixtures are vortexed immediately prior to administration to cells. […] 10 μL of Cell Counting Kit 8 (CCK8, Dojindo# CK04-11) is added to each well to colormetrically assess viability. After 2-4 hours of incubation with the CCK8 dye, absorbance is read at 450 nm by a BioTek Synergy 2 plate reader.\nThe cytotoxicity of selected compounds against the glioblastoma brain cancer cell line LN-229 is depicted in Table 2.",
  "key": {"[1]": {"details": "LN-229 cells, 24 hrs, 1% FBS media, CCK8 readout"}},
  "note": "Like-named read-outs stand apart in the source and are kept apart here.",
  "data": [
    {"smiles": "CCCCCc1cc(O)c2c(-c3cccs3)coc2c1", "note": "[Compound 49, 6-Pentyl-3-thiophen-2-yl-benzofuran-4-ol]", "values": [
      {"measurement": "EC50", "setting": "[1]", "result": 68.5, "unit": "µM"}
    ]},
    {"smiles": "CCCCCc1cc(O)c2cc(-c3cccs3)oc2c1", "note": "[Compound 50, 6-Pentyl-2-thiophen-2-yl-benzofuran-4-ol]", "values": [
      {"measurement": "EC50", "setting": "[1]", "result": 10.1, "unit": "µM"}
    ]},
    {"smiles": "CCCCCc1cc(O)c2c(-c3cccc(C)c3)coc2c1", "note": "[Compound 51, 6-Pentyl-3-m-tolylbenzofuran-4-ol]", "values": [
      {"measurement": "EC50", "setting": "LN-229, 24 h", "result": 16.4, "unit": "µM"}
    ]},
    {"smiles": "CCCCCc1cc(O)c2c(-c3ccccc3)coc2c1", "note": "[Compound 52, 6-Pentyl-3-phenylbenzofuran-4-ol]", "values": [
      {"measurement": "EC50", "setting": "[1]", "result": 10.7, "unit": "µM"}
    ]},
    {"smiles": "CCCCCc1cc(O)c2c(-c3cc(OC)cc(OC)c3)coc2c1", "note": "[Compound 55, 3-(3,5-Dimethoxyphenyl)-6-pentylbenzofuran-4-ol]", "values": [
      {"measurement": "EC50", "setting": "LN-229, 24 h", "result": 10.3, "unit": "µM"}
    ]},
    {"smiles": "CCCCCc1cc(O)c2cc(-c3cc(OC)cc(OC)c3)oc2c1", "note": "[Compound 56, 2-(3,5-Dimethoxyphenyl)-6-pentylbenzofuran-4-ol]", "values": [
      {"measurement": "EC50", "setting": "[1]", "result": 10.3, "unit": "µM"}
    ]},
    {"smiles": "CCCCCc1cc(O)c2c(-c3cc(Cl)cc(Cl)c3)coc2c1", "note": "[Compound 58, 3-(3,5-Dichlorophenyl)-6-pentylbenzofuran-4-ol]", "values": [
      {"measurement": "EC50", "setting": "LN-229, 24 h", "result": 13.6, "unit": "µM"}
    ]},
    {"smiles": "CCCCCc1cc(O)c2cc(-c3cc(Cl)cc(Cl)c3)oc2c1", "note": "[Compound 59, 2-(3,5-Dichlorophenyl)-6-pentylbenzofuran-4-ol]", "values": [
      {"measurement": "EC50", "setting": "[1]", "result": 6.12, "unit": "µM"}
    ]},
    {"smiles": "CCCCCCC(C)(C)c1cc(O)c2c(-c3cc(Cl)cc(Cl)c3)coc2c1", "note": "[Compound 62, 3-(3,5-Dichlorophenyl)-6-(2-methyloctan-2-yl)benzofuran-4-ol]", "values": [
      {"measurement": "EC50", "setting": "[1]", "result": 11.4, "unit": "µM"}
    ]},
    {"smiles": "CCCCCCC(C)(C)c1cc(O)c2c(-c3ccccc3)coc2c1", "note": "[Compound 63, 6-(2-Methyloctan-2-yl)-3-phenylbenzofuran-4-ol]", "values": [
      {"measurement": "EC50", "setting": "[1]", "result": 10.3, "unit": "µM"}
    ]},
    {"smiles": "CC(C)(c1cccc(F)c1)c1cc(O)c2c(-c3ccccc3)coc2c1", "note": "[Compound 75, 6-(2-(3-Fluorophenyl)propan-2-yl)-3-phenylbenzofuran-4-ol]", "values": [
      {"measurement": "EC50", "setting": "[1]", "result": 6.99, "unit": "µM"}
    ]}
  ]
}
